Active and inactive are the calls of the source.
How the values were obtained:
[1] = inhibitors of intracellular T. cruzi replication, confirmation, NIH3T3 host cells, beta-gal luminescence (AID 2044); assay type: functional, cell-based;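 also: intracellular parasites grown in NIH/3T3 mouse fibroblasts as host cells; luminescent beta-galactosidase reporter signal from transgenic T. cruzi replicating inside host cells; inhibitors lower the luminescence signal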
[2] = cytotoxicity toward NIH3T3 fibroblasts, dose response, counter-screen, cell-based, ATP luminescence, mouse fibroblasts (AID 2010); assay type: functional;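 also: cells exposed to compound for about 90 hours before reading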
Vero = assay: host cell cytotoxicity of antiviral hits, dose response, cytotoxicity control for West Nile virus antiviral project, secondary assay (AID 1650); assay type: functional; settings: Chlorocebus sabaeus
Beta-galactosidase = Beta-galactosidase (Escherichia coli, UniProt Q8VNN2); assay: beta-galactosidase enzyme inhibitors and activators, dose response, artefact control for CCR6 antagonist project, biochemical, E. coli enzyme, set 3 (AID 504712); assay type: functional
Beta-galactosidase, sequence (Q8VNN2 whole entry): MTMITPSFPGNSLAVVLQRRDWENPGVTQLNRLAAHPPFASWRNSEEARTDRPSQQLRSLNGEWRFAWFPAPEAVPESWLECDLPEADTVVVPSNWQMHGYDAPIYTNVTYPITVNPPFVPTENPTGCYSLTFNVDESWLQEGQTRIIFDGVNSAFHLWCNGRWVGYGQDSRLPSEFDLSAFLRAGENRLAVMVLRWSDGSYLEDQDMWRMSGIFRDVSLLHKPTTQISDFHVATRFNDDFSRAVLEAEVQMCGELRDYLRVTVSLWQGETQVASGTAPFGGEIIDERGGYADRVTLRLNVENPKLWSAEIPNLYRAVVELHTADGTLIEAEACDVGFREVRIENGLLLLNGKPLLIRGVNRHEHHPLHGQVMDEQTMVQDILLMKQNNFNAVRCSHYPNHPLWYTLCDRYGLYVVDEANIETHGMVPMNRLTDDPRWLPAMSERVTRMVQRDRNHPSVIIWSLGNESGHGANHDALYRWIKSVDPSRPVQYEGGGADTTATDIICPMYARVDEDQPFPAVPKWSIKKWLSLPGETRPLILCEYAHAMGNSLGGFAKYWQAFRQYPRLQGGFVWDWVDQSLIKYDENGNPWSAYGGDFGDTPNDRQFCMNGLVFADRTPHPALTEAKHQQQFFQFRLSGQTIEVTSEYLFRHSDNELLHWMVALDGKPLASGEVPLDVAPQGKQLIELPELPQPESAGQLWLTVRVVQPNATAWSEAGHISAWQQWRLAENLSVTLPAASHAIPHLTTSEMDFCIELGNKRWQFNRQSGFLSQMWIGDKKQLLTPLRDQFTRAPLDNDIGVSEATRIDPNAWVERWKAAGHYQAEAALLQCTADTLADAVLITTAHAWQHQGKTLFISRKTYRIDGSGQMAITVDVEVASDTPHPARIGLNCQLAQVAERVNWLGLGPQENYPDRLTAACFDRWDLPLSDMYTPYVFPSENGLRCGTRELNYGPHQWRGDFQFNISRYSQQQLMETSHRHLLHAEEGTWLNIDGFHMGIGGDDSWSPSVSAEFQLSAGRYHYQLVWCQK

[3] = biological target: C-C chemokine receptor type 6 (Homo sapiens, UniProt P51684); assay: CCR6 receptor antagonists, dose response, cell-based, luminescent beta-arrestin readout (AID 504728); assay type: functional
C-C chemokine receptor type 6, sequence (P51684 whole entry, the tested form may be a part): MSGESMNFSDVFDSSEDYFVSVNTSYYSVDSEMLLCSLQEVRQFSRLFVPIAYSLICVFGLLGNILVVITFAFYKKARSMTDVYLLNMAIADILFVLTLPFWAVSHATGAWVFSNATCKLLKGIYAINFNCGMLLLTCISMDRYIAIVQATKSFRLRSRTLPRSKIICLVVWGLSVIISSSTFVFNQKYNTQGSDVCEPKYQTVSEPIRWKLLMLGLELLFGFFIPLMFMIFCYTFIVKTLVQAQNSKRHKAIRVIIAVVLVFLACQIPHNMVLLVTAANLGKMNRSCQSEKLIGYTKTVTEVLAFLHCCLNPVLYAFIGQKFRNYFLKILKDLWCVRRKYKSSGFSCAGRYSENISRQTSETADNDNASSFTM

[4] = biological target: T1, Oxysterols receptor LXR-beta (Homo sapiens, UniProt P55055); assay: LXR agonists, Gal4 luciferase reporter, dose response, counter-screen for ssDAF-12 agonist project, cell-based, luminescence, HEK293, S. stercoralis campaign (AID 720737); assay type: functional; settings: read-out: IC50 (the source's name)
T1 sequence (P55055 whole entry): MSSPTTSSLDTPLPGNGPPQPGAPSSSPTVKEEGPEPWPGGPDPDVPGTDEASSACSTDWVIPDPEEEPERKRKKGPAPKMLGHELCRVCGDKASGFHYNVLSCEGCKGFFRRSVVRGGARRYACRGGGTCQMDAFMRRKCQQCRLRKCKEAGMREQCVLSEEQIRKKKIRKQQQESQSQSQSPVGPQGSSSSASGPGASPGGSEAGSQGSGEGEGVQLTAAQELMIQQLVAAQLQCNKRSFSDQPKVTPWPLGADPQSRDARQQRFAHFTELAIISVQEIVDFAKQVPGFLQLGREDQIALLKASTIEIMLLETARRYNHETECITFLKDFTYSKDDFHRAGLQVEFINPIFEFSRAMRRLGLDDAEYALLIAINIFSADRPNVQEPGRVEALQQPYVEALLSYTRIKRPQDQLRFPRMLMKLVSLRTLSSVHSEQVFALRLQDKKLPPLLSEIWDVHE

[5] = Luminescence-based cell-based high throughput dose response assay to identify activators of the DAF-12 from the parasite S. stercoralis (ssDAF-12).; assay type: functional
[6] = biological target: Serine/threonine-protein phosphatase (Homo sapiens, UniProt Q9BPW0); assay: Counterscreen for inhibitors of PP1: fluorescence-based biochemical high throughput dose response assay to identify inhibitors of Protein Phosphatase 5 (PP5). [Related pubchem assays: 2034 (Summary (PP5 inhibitors)), 1987 (PP5 inhibitors in singlate), 2235 (PP1 inhibitors in singlate)]
Serine/threonine-protein phosphatase, sequence (Q9BPW0 whole entry): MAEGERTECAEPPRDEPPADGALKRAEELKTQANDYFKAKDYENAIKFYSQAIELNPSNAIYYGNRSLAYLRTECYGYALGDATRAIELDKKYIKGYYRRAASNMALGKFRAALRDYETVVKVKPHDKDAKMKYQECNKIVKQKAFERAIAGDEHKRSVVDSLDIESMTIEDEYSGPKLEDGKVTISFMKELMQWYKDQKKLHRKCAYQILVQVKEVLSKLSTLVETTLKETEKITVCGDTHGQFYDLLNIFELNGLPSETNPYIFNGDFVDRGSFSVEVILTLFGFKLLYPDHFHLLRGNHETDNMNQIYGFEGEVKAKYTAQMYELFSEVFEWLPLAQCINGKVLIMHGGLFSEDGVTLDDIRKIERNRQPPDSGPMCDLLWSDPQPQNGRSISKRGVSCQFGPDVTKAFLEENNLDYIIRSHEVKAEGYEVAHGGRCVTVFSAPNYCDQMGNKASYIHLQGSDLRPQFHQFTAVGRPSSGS

[7] = biological target: Serine/threonine-protein phosphatase PP1-alpha catalytic subunit (Homo sapiens, UniProt P62136); assay: PP1 phosphatase inhibitors, dose response, biochemical, fluorescence (AID 2403);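 also: phosphatase turnover of OMFP into fluorescent 3-O-methylfluorescein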
Serine/threonine-protein phosphatase PP1-alpha catalytic subunit, sequence (P62136 whole entry): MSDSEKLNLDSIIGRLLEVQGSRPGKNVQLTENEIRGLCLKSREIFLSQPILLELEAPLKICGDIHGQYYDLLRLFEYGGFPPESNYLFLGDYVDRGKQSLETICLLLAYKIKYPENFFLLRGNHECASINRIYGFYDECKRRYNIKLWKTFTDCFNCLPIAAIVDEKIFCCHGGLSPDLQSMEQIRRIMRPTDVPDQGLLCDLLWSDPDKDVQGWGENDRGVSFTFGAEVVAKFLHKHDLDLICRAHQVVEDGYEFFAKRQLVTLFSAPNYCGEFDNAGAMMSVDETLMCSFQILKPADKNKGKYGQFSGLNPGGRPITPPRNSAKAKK

[8] = A Cell Based Secondary Assay To Explore Cytotoxicity of Compounds that Sensitize Mycobacterium Tuberculosis to Beta-Lactam Antibiotics.; assay type: functional
Leucine aminopeptidase = Leucine aminopeptidase (Plasmodium falciparum 3D7, UniProt Q8IL11); assay: P. falciparum M17LAP inhibitors, primary screen, biochemical, fluorogenic H-Leu-NHMec substrate, 1536-well (AID 1619); assay type: functional
Leucine aminopeptidase, sequence (Q8IL11 whole entry): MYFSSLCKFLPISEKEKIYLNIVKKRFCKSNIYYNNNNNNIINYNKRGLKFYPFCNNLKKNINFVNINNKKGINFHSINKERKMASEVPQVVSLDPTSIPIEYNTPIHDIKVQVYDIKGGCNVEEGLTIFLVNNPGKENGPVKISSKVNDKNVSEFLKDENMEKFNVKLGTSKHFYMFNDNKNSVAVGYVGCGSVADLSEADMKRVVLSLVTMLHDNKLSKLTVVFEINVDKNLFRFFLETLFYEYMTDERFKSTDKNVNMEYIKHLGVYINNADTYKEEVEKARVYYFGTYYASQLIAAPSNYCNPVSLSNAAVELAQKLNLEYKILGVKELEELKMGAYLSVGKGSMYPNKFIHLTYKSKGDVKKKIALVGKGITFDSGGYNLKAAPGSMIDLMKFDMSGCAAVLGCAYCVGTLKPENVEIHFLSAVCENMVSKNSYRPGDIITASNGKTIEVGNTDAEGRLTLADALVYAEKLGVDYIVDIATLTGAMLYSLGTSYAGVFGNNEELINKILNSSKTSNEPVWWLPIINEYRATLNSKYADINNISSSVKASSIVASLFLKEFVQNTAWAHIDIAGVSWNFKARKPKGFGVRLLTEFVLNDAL

[9] = HEp-2 cell cytotoxicity, dose response, cytotoxicity control for RSV inhibitor project, HTS (AID 2410); assay type: functional; settings: human respiratory syncytial virus
Estrogen receptor = Estrogen receptor (Homo sapiens, UniProt P03372); assay: potentiators of ERα–SRC-1 coactivator binding, dose response, biochemical, TR-FRET, ERα LBD (AID 737)
Estrogen receptor, sequence (P03372 whole entry, the tested form may be a part): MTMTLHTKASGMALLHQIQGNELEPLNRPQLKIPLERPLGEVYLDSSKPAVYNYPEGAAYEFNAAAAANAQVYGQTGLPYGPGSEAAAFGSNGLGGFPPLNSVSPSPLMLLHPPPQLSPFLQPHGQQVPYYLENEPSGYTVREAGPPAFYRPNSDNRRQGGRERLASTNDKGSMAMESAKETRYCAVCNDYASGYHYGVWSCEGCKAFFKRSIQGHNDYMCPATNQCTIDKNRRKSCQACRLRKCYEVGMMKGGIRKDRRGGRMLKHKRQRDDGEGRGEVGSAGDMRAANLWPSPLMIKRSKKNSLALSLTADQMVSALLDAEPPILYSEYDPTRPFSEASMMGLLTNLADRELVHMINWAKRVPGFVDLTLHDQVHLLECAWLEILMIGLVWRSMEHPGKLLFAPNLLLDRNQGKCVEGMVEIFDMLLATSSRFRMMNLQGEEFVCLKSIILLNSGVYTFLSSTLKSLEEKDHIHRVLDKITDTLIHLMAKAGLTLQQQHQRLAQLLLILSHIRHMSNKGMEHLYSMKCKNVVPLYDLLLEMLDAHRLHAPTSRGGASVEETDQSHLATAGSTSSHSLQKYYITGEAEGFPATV

[10] = biological target: T2, Dual specificity protein phosphatase 6 (Rattus norvegicus, UniProt Q64346); assay: MKP-3 phosphatase inhibitors, primary screen, biochemical, rat enzyme, in vitro (AID 425)
T2 sequence (Q64346 whole entry): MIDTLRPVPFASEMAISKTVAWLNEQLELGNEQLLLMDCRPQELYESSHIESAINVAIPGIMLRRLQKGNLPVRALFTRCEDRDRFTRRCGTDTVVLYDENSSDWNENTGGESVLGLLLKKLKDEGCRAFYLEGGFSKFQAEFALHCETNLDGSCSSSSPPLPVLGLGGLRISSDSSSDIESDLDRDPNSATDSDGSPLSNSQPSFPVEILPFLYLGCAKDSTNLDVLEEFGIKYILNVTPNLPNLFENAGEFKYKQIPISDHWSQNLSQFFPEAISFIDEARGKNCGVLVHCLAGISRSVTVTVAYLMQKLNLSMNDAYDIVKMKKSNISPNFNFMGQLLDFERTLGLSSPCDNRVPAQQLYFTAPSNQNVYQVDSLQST

[11] = biological target: T3, Alkaline phosphatase, tissue-nonspecific isozyme (Homo sapiens, UniProt P05186)
T3 sequence (P05186 whole entry): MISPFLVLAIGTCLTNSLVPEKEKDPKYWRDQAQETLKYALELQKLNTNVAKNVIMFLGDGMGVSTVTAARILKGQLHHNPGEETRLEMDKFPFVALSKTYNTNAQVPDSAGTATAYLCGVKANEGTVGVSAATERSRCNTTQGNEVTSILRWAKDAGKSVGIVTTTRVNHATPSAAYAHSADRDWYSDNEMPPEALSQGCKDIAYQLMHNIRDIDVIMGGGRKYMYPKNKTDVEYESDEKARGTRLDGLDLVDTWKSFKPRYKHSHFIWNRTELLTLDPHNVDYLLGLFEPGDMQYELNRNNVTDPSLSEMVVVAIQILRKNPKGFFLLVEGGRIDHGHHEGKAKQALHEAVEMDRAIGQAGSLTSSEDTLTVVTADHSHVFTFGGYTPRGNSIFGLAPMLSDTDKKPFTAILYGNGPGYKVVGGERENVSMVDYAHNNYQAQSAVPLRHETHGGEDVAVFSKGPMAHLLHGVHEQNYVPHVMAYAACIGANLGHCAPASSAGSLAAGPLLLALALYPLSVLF

[12] = THP-1 cell cytotoxicity, dose response, cytotoxicity control for Vif-APOBEC3G degradation inhibitor project, THP-1 cells (AID 1117359); assay type: functional; settings: Human immunodeficiency virus 1, THP-1
X-box-binding protein 1 = X-box-binding protein 1 (Homo sapiens, UniProt P17861); assay type: functional, Cricetulus griseus;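 also: confirmatory dose-response counter-screen serving a CHOP assay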
X-box-binding protein 1, sequence (P17861 whole entry): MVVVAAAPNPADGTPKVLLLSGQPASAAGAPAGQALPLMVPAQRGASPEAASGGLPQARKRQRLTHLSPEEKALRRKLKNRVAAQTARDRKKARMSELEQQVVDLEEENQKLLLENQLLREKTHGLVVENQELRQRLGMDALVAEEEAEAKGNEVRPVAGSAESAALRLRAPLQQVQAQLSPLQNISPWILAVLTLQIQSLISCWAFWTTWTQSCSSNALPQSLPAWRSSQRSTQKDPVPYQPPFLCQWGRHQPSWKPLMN

## O=[N+]([O-])c1ccc(NC2CCN(Cc3ccccc3)CC2)c2ccncc12
[1]
  EC50: 0.811 µM (active)
[2]
  EC50: > 60 µM (not active)
Vero
  CC50: > 100 µM (active)

## Cc1c(C(=O)Nc2nc3ccccc3[nH]2)oc2ccccc12
Beta-galactosidase
  IC50: > 66.6 µM (inactive)
[3]
  IC50: 0.552 µM (active)
[4]
  EC50: > 67.5 µM (inactive)
[5]
  IC50: > 67.5 µM (inactive)

## COc1ccc(CN2C(=O)Cc3c2nc(N)c2c(N)nc(N4CCCCC4)c(C#N)c32)cc1
[6]
  IC50: > 67 µM (not active)
[7]
  IC50: 11.1 µM (not active)

## Cc1cc(NC(=O)CSc2nc(C(C)C)nc3sc4c(c23)CCCC4)no1
[8]
  CC50: 38 µM (active)

## CCc1ccccc1NC(=O)CSc1nnc[nH]1
Leucine aminopeptidase
  IC50: 34.4 µM (active)

## Cc1nc2ccccc2nc(C)c1=NOCc1cccc(F)c1
cells
  IC50: 35.9 µM (active)
[9]
  CC50: 41.4 µM (active)

## COc1cccc(-n2nnnc2SCC(=O)Nc2ccc(C(C)=O)cc2)c1
Estrogen receptor
  EC50: 17.3 µM (active)

## CCOc1ccc2nc(Nc3nc4c(c(=O)[nH]3)CCC4)nc(C)c2c1
[10]
  IC50: 36.8 µM (active)

## CCC(C)N=C(S)NNC(=O)c1ccc(C(C)(C)C)cc1 (stereo not given)
[11]
  EC50: 79.2 µM (not active)
[12]
  CC50: > 40 µM (active)

## CCCOc1ccc(N2C(=O)CC(SC(=NCC)Nc3cccc(F)c3)C2=O)cc1 (stereo not given)
X-box-binding protein 1
  Absolute IC50 (XBP1): 10 µM

## N#Cc1ccsc1NC(=O)CSc1nnc[nH]1
Leucine aminopeptidase
  IC50: 10.7 µM (active)

## CCSc1nc2c(cnn2-c2ccc(C)cc2)c(=O)[nH]1
Estrogen receptor
  EC50: 14.4 µM (active)

Source: ChEMBL document CHEMBL1201862, “PubChem BioAssay data set” (2004)
